Structures can show the parent of a compound that is named as a salt. Where two headings read alike, the source gives them in different places.
Key:
[1] = system: Herpes simplex type 1 virus (HFEM strain); assay: Plaque reduction test in Vero cells infected with Herpes simplex type 1 virus; format: cell-based
Procedure: (§1) Vero (African Green Monkey Kidney) cells were grown to confluence in 6 well multidishes, each well being 3.5 cm in diameter. The cells were incubated with Herpes simplex type 1 virus (HFEM strain) and overlaid with 0.5 mL of 0.9% agarose (w/v) in maintenance medium containing the test compound at a range of concentrations from 3 µg/mL in half-log dilution steps. The virus infected cultures were then incubated at 37 °C for 6 days before fixing in 4% formaldehyde solution and staining with carbolfuchsin. The dishes were then examined to find what concentration of test compound causing a 50% reduction in the number of virus plaques formed (PDD50 value) and the minimum concentration of test compound which killed the cell monolayer, leaving a clear zone devoid of cells and virus plaques (MTD).

[2] = system: Vero (African Green Monkey Kidney) cells; assay: Minimum concentration killing the Vero cell monolayer, read in the plaque reduction test; format: cell-based; details: minimum concentration which killed the cell monolayer; virus-infected Vero cells, 6 days at 37°C
Procedure: as §1

[3] = as above; format: cell-based, African Green Monkey; details: african green monkey; minimum concentration which killed the cell monolayer; virus-infected Vero cells, 6 days at 37°C; read-out: MTD
Procedure: as §1

[4] = concentration causing a 50% reduction in the number of virus plaques, 6 days at 37°C
[5] = same PDD50 values given in µM, 6 days at 37°C, read-out: PDD50 (the source's name)
[6] = Human alphaherpesvirus 1, 144 h, concentration causing a 50% reduction in the number of virus plaques, 6 days at 37°C, read-out: PDD50 (the source's name)
[7] = Human alphaherpesvirus 1, 144 h, same PDD50 values given in µM, 6 days at 37°C, read-out: PDD50 (the source's name)
[8] = Human alphaherpesvirus 1, Vero, 144 h, read-out: PDD50, concentration causing a 50% reduction in the number of virus plaques, 6 days at 37°C
[9] = Human alphaherpesvirus 1, Vero, 144 h, read-out: PDD50, same PDD50 values given in µM, 6 days at 37°C

| Compound | PDD50 [1, 4] | IC50 [1, 5] | MTD [2] | IC50 [1, 6] | MCC at 144 h [3] | further results |
| --- | --- | --- | --- | --- | --- | --- |
| E-5-(2-bromovinyl)-3',5'-di-L-lysyl-2'-deoxyuridine tetrakis trifluoroacetate dihydrate [Example 40] | 0.19 µg/mL | 0.18 µM | >100 µg/mL |  |  |  |
| NC(Cc1ccccc1)C(=O)OC[C@H]1O[C@@H](n2cc(/C=C/Br)c(=O)[nH]c2=O)C[C@@H]1OC(=O)C(N)Cc1ccccc1 (some centres unmarked) [Example 7, E-5-(2-Bromovinyl)-3',5'-di-O-phenylalanyl-2'-deoxyuridine bis trifluoroacetate] |  |  | >100 µg/mL |  |  | PDD50 ([1]; concentration causing a 50% reduction in the number of virus plaques, 6 days at 37°C, bis trifluoroacetate): 0.14 µg/mL; IC50 ([1]; read-out: PDD50, same PDD50 values given in µM, 6 days at 37°C, bis trifluoroacetate): 0.16 µM |
| E-5-(2-Bromovinyl)-3',5'-di-L-leucyl-2'-deoxyuridine bis trihydrogenpyrophosphate [Example 41] | 0.55 µg/mL | 0.6 µM | >100 µg/mL |  |  |  |
| E-5-(2-Bromovinyl)-3',5'-di-glycyl-2'-deoxyuridine bis bisulphate [Example 17] | 0.49 µg/mL | 0.76 µM | >100 µg/mL |  |  |  |
| E-5-(2-Bromovinyl)-3',5'-di-L-alanyl-2'-deoxyuridine bis trifluoroacetate [Example 38] | 0.26 µg/mL | 0.37 µM | >100 µg/mL |  |  |  |
| CC(C)C[C@H](N)C(=O)OC[C@H]1O[C@@H](n2cc(/C=C/Br)c(=O)[nH]c2=O)C[C@@H]1OC(=O)[C@@H](N)CC(C)C [Example 18, E-5-(2-bromovinyl)-3',5'-di-L-leucyl-2'-deoxyuridine bis bisulphate salt] | 0.28 µg/mL |  | >100 µg/mL |  |  | IC50 ([1]; read-out: PDD50, same PDD50 values given in µM, 6 days at 37°C): 0.37 µM |
| CC(C)(C)OC(=O)N1CCC[C@H]1C(=O)OC[C@H]1O[C@@H](n2cc(/C=C/Br)c(=O)[nH]c2=O)C[C@@H]1OC(=O)[C@@H]1CCCN1C(=O)OC(C)(C)C [Example 27, E-5-(2-Brcmovinyl)-3',5'-di-(t-butoxycarbonyl-L-prolyl)-2'-deoxyuridine] |  |  |  | 3.51 µg/mL | 100 µg/mL | IC50 [1, 7]: 4.83 µM |
| CC(C)(C)OC(=O)N[C@@H](CCC(N)=O)C(=O)OC[C@H]1O[C@@H](n2cc(/C=C/Br)c(=O)[nH]c2=O)C[C@@H]1OC(=O)[C@H](CCC(N)=O)NC(=O)OC(C)(C)C [Example 25, E-5-(2-Bromovinyl)-3',5'-di-(t-butoxycarbonyl-L-glutaminyl)-2'-deoxyuridine] |  |  |  | 0.47 µg/mL | > 100 µg/mL | IC50 [1, 7]: 0.6 µM |
| CC(C)C[C@H](NC(=O)OC(C)(C)C)C(=O)OC[C@H]1O[C@@H](n2cc(/C=C/Br)c(=O)[nH]c2=O)C[C@@H]1OC(=O)[C@H](CC(C)C)NC(=O)OC(C)(C)C [Example 12, E-5-(2-Bromovinyl)-3',5'-di(t-butoxycarbonyl-L-leucyl)-2^1-deoxyuridine] |  |  |  | 0.86 µg/mL | 100 µg/mL | IC50 [1, 7]: 1.13 µM |
| NCC(=O)OC[C@H]1O[C@@H](n2cc(/C=C/Br)c(=O)[nH]c2=O)C[C@@H]1OC(=O)CN [Example 14, E-5-(2-Bromovinyl)-3',5'-di-glycyl-2'-deoxyuridine bis trifluoroacetate] |  |  |  |  | > 100 µg/mL | IC50 [1, 8]: 0.36 µg/mL; IC50 [1, 9]: 0.53 µM |
| CC(C)C[C@@H](NC(=O)OC(C)(C)C)C(=O)OC[C@H]1O[C@@H](n2cc(/C=C/Br)c(=O)[nH]c2=O)C[C@@H]1OC(=O)[C@@H](CC(C)C)NC(=O)OC(C)(C)C [Example 19, E-5-(2-Bromovinyl)-3',5'-di-(t-butoxy-carbonyl-D-leucyl)-2'-deoxyuridine] |  |  |  | > 100 µg/mL | > 100 µg/mL |  |
| E-5-(2-Bromovinyl)-5'-O-phenylalanyl-2'-deoxyuridine trifluoroacetate [Example 9] | 0.19 µg/mL | 0.32 µM | >100 µg/mL |  |  |  |
| NCC(=O)OC[C@H]1O[C@@H](n2cc(/C=C/Br)c(=O)[nH]c2=O)C[C@@H]1O [Example 13, E-5-(2-Bromovinyl)-5'-glycyl-2'-deoxyuridine trifluoroacetate] |  |  |  |  | > 100 µg/mL | IC50 [1, 8]: 0.94 µg/mL; IC50 [1, 9]: 1.87 µM |
